We go through two compounds from patent publication US20260130906A1, “THERAPY COMPRISING ANTI-CD19 ANTIBODY AND SUMO-ACTIVATING ENZYME INHIBITOR” (TAKEDA PHARMACEUTICAL COMPANY LIMITED, priority 2021, published 2026).

Experiment [1] deals with DAUDI. The experiment is described as follows: ADCP assay (macrophages). The conditions noted are these: macrophages pre-treated 1 μM TAK-981 and/or 1 nM tafasitamab, E:T 2:1, 3 h, FIG. 4. The format is cell-based, human. Here is the method: (§1) Monocytes were positively selected from PBMCs using CD14 MicroBeads on a MACS LS column according to the manufacturer's protocol (Miltenyi Biotec). Isoltaed cells were re-suspended in RPMI medium supplemented with 10% FCS and 1× GlutaMax. Monocytes were maturated into macrophages in T-flasks for 6 to 7 days in the presence of 50 ng/ml M-CSF.
(§2) After maturation, macrophages were stained with 2 μM CFSE and detached using 5 mM EDTA and scraping. After washing with PBS, macrophages were re-suspended in medium containing either DMSO (negative control) or 1 μM TAK-981 and allowed to re-attach in 96 well culture plates for 16-24 hours. Target cells were stained using the CellTrace Violet Cell Proliferation Kit (Invitrogen) and co-cultured with pre-treated macrophages in the presence or absence of 1 nM tafasitamab for 3 hours at an E:T ratio of 2:1. The cells were detached using 0.05% Trypsin-EDTA and transferred into multi-well flow cytometry plates. Using flow cytometry the percentage of phagocytosis was evaluated, defined as the percentage of double positive cells out of all CellTrace Violet positive cells.

Experiment [2] deals with SUMO-activating enzyme (Homo sapiens, UniProt Q9UBT2). As to the kind of experiment: Biochemical assays of SUMO-activating enzyme inhibition. From the text:
(§3) SAE inhibitors, as disclosed herein, are described, for example, in US 2016/0009744 and U.S. Pat. No. 9,695,154 which is hereby incorporated by reference in its entirety. They may be prepared by methods known to one skilled in the art and/or according to the methods described in US 2016/0009744 and U.S. Pat. No. 9,695,154 . . . . Central to the mechanism of action of useful SAE inhibitors, such as Compound I-263a, in combinations and methods of the present disclosure is production of type 1 IFNs and induction of an innate immune response with activation of both natural killer (NK) cells and macrophages.

The subject of experiment [3] is RAMOS. The experiment is described as follows: ADCP assay (macrophages). The format is cell-based. The conditions noted are these: macrophages pre-treated 1 μM TAK-981 and/or 1 nM tafasitamab, E:T 2:1, 3 h, FIG. 4. How it is done:
as §1, §2

Experiment [4] has as its system SUMO-activating enzyme and SUMOylation. As to the kind of experiment: Inhibition of SAE and SUMOylation in cultured tumor cell lines. The format is cell-based. Conditions: cultured mouse and human tumor cell lines.
From the text: as §3

In experiment [5] the test system is WSU-DLCL2 human xenograft tumor model. The experiment is described as follows: Study 3: WSU-DLCL2 human xenograft tumor model. The format is in vivo, CB17 SCID mice. Conditions: for GRI % / Tumor volume on Day 21 (±SEM): WSU-DLCL2; for GRI %: Day 21, vs vehicle; for Tumor volume on Day 21 (±SEM): in mm³ (unit assumed); for tumor growth inhibition as single agents (in words): WSU-DLCL2 human DLBCL mouse model. Here is the method:
The differences in the tumor growth trends over time between pairs of treatment groups were assessed by fitting each animal's data to a simple exponential growth model and comparing the mean growth rates of the two groups, as described in more detail below. The difference in the growth rates was summarized by the GRI, which is the reduction in growth rate experienced by the treatment group relative to that of the reference group, expressed as a fraction of the vehicle growth rate.
A GRI greater than 100% is interpreted as tumor regression when the vehicle group is the same as the reference group. A negative value of the GRI means that the tumors in the treatment group grew faster than the tumors in the reference group. Statistical significance was determined using an unpaired t-test.
Low tumor volumes can cause problems with the data analysis, so all measurements below 25 cubic mm (including 0 values) were excluded from the analysis. After this exclusion step, the tumor volume was assumed to follow an exponential growth model. […]
WSU-DLCL2 is a human DLBCL cell line. A WSU-DLCL2 human xenograft tumor model was generated by subcutaneous inoculation in the flank of 8 week old female CB17 SCID mice (Charles River Laboratories, Wilmington, MA) with 4.0×10^6 WSU-DLCL2 cells (cell suspension in 0.1 mL RPMI 1640 media). When the mean tumor volume reached approximately 200 mm^3, the animals were randomized into one vehicle control group and seven treatment groups (n=7/group) as described in Table 3a. Mice were then dosed with 20% HPβCD or Compound I-263a and/or tafasitamab over a 3 week period. In the combination treatment groups, I-263a was administered first, followed immediately by the administration of tafasitamab. Tumor growth and body weight were measured twice per week during the treatment and post-treatment periods, and mice were humanely euthanized once they had reached their humane endpoint. Tumors were measured using Vernier calipers and volumes were calculated using standard equation: V=W^2×L/2, where V=volume, W=width, and L=length for the tumor.
A 0.8625 mg/mL stock solution of I-263a was formulated weekly in 20% HPβCD and administered intravenously (IV) based on an average body weight using a 0.2 mL dosing volume. Final dose of I-263a received was 7.5 mg/kg. I-263a was administered on a BIW schedule for 3 weeks (Days 1, 4, 8, 11, 15, 18). Tafasitamab was formulated prior to each injection in 0.9% saline at 0.6 mg/mL and 2.0 mg/mL. Final dose of tafasitamab received was 3, 10, or 20 mg/kg based on average body weight. Tafasitamab was administered intraperitoneally (IP) on a BIW schedule for 3 weeks (Days 1, 4, 8, 11, 15, 18). For the 3 mg/kg dose level, 0.1 mL of the 0.6 mg/mL solution was administered. For the 10 mg/kg and 20 mg/kg dose levels, dosing volumes of the 2.0 mg/mL solution were 0.1 mL and 0.2 mL, respectively. The vehicle group received IV treatment with the vehicle for I-263a (20% HPβCD) on a BIW schedule for three weeks (Days 1, 4, 8, 11, 15, 18).
Statistical analysis for growth rate inhibition was performed on data up to and including Day 21.
A general note: Xenograft models place foreign cells or tissue in a host animal.

SUMO-activating enzyme, sequence (Q9UBT2 whole entry): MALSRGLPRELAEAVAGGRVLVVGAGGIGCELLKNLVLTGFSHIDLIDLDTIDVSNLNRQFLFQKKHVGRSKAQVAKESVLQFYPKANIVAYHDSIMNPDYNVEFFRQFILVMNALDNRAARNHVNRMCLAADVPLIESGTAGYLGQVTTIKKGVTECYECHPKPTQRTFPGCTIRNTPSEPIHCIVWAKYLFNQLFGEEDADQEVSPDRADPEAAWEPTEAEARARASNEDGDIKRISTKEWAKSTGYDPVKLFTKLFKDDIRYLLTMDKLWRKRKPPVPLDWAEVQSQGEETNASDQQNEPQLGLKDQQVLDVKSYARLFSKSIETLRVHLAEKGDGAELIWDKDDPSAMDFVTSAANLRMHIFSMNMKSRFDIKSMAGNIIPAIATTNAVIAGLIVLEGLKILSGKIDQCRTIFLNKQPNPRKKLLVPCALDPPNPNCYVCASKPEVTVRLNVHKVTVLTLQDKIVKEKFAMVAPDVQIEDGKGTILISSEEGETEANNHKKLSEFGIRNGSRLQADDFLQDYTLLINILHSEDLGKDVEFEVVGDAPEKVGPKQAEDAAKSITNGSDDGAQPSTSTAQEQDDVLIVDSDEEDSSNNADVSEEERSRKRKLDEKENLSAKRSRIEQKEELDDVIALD
SUMO-activating enzyme, sequence (Q9UBE0 whole entry partner): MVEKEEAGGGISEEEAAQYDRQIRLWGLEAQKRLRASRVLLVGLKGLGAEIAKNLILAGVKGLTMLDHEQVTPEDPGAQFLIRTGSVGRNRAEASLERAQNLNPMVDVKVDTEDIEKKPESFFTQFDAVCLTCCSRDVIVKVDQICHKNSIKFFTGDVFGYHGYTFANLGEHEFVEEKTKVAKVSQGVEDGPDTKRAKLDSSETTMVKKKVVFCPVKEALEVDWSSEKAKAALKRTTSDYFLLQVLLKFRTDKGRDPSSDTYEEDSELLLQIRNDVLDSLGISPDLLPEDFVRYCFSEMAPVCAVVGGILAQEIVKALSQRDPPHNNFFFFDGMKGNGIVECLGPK
SUMO-activating enzyme, sequence (P63165 1-97 partner limits assumed): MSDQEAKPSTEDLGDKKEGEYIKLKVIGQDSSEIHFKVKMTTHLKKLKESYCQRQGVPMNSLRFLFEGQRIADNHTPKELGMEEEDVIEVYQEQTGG

For `Cc1sc(C(=O)c2cncnc2N[C@@H]2C[C@H](COS(N)(=O)=O)[C@@H](O)C2)cc1[C@@H]1NCCc2ccc(Cl)cc21` [Compound I-263a, [(1R,2S,4R)-4-{[5-({4-[(1R)-7-chloro-1,2,3,4-tetrahydroisoquinolin-1-yl]-5-methyl-2-thienyl}carbonyl)pyrimidin-4-yl]amino}-2-hydroxycyclopentyl]methyl sulfamate], the Phagocytosis entry in experiment [1] and in experiment [3] was “effectively phagocytosed” in each case. In addition, in experiment [2] (mechanism-based, covalent adduct with SUMO), the “inhibition of SUMO-activating enzyme activity” value is “potently inhibits enzyme activity”. In experiment [2] (over ubiquitin-activating enzyme, Nedd8-activating enzyme, autophagy related 7 enzyme), the “selectivity for SUMO-activating enzyme” value is reported as “Strong selectivity”. The “inhibition of SUMO-activating enzyme and SUMOylation” value in experiment [4] is “Selective and potent inhibition”. Besides, the GRI % in experiment [5] (I-263a 7.5 mg/kg IV BIW, 7.5 mg/kg) is on record as 14%; in experiment [5] (I-263a 7.5 mg/kg IV BIW, listed as TAK-981) it was “did not result in significant growth rate inhibition”. In addition, the “Tumor volume on Day 21 (±SEM)” value in experiment [5] (I-263a 7.5 mg/kg IV BIW 3 weeks) is 1410.7 ± 155.8. The “tumor growth inhibition as single agents (in words)” value in experiment [5] is reported as “do not show significant or extensive tumor growth inhibition”.

In the case of “Tafasitamab: humanized monoclonal antibody that targets the antigen CD19, engineered in the IgG Fc-region to enhance ADCC; sequences in Table 1”, the Phagocytosis entry in experiment [1] and in experiment [3] was “effectively phagocytosed” in each case. For the same compound, the GRI % in experiment [5] (tafasitamab 3 mg/kg IP BIW) is given as 20%; in experiment [5] (tafasitamab 10 mg/kg IP BIW), 12%; in experiment [5] (tafasitamab 10 mg/kg IP BIW, listed as tafasitamab), “did not result in significant growth rate inhibition”; in experiment [5] (tafasitamab 20 mg/kg IP BIW) it was 2%; in experiment [5] (tafasitamab 20 mg/kg IP BIW, listed as tafasitamab) it was “did not result in significant growth rate inhibition”. Further, the “Tumor volume on Day 21 (±SEM)” value is 1197.3 ± 168.3 in experiment [5] (tafasitamab 3 mg/kg IP BIW 3 weeks), 1494.3 ± 126.3 in experiment [5] (tafasitamab 10 mg/kg IP BIW 3 weeks) and 1519.0 ± 110.8 in experiment [5] (tafasitamab 20 mg/kg IP BIW 3 weeks). Further, in experiment [5], the “tumor growth inhibition as single agents (in words)” value is recorded as “do not show significant or extensive tumor growth inhibition”.
